Values joined by “and” are separate entries in the source; they are usually repeats but may differ in a detail not shown here. Identical values can stand only once.
Legend:
in vitro [1] = conditions: mouse, plasma
IL-1β = assay: CDAHFD mice: IL-1β immunohistochemical staining; type: in vivo, mouse; design: IL-1β immunohistochemical staining (IL1b area), individual mouse / IL-1β immunohistochemical staining (IL1b area), Average: unit not given here; conditions: for IL-1β immunohistochemical staining (IL1b area), Average / IL-1β immunohistochemical staining (IL1b area), individual mouse: CDAHFD mice; for IL-1β immunohistochemical staining (IL1b area), Average: group average n=4, CDAHFD+Vehicle 8.870, Vehicle 2.958; for IL-1β immunohistochemical staining (IL1b area), individual mouse: individual animals No. 1-4 (Fig.4h)
Text: C57BL/6 J male mice were purchased from the Japan SLC. Inc (Hamamatsu, Japan). Mice (5 weeks old) were fed Teklad Certitied Irradiated Global 18% protein rodent diet purchased from Dooyeol Biotech Co. Ltd (Seoul, South Korea) during the acclimation period. The liver fibrosis/inflammation-induced groups were CDAHFD-fed (A06071302, Research diet). […] All animal experiments complied with the relevant ethical regulations.
Mouse liver tissues were fixed in 4% formalin solution (Sigma–Aldrich, St. Louis, MO, USA) and embedded in paraffin. 4-μm-thick liver sections were deparaffinized in xylene, and rehydrated through descending grades of ethanol. To evaluate liver fibrosis, sections were stained with Sirius red solution and subjected to immunohistochemical staining. Tissue sections, after deparaffinization, underwent a 16-hour incubation in a solution containing 0.1% Direct Red 80 (365548, Sigma-Aldrich) dissolved in Picric acid (P-201, Spectrum Chemical, CA, USA) for Sirius red staining. The sections were briefly immersed in a 0.01 N HCl solution (1129, Ducksan, Republic of Korea) for 2 min. and then rinsed with distilled water for destaining. Subsequently, the sections underwent dehydration through […] grades of ethanol. Immunohistochemical staining was performed using the Polyview Plus HRP-DAB (anti-Rabbit) Kit (ENZ-KIT159-0150, ENZO Life Science, NY, USA) following the manufacturers’ instructions. Deparaffinized sections were boiled in IHC-TekTM Epitope Retrieval solution (IW-1100, IHCWORLD, MD, USA) for 45 min., cooled for 1 h, incubated in a 3% H2O2 solution (69355-0350, JUNSEI, Japan) for 15 min., washed, and then incubated overnight with primary antibodies (α-SMA, ab5694, Abcam, 1:500 dilution; TNF-α, ab6671, Abcam, 1:100 dilution and IL-1β, ab9722, Abcam, 1:100 dilution). Subsequently, the sections were treated with Polyview Plus HRP for 2 h and developed with DAB chromogen/substrate. Stained […] sections were confirmed by light microscopy (Olympus BX53 upright microscope, Tokyo, Japan). The degree of hepatic fibrosis and immunohistochemical staining was quantified by morphometric analysis of stained liver sections using NIH ImageJ software.

5HT2C (h) = 5HT2C (h) (Homo sapiens, UniProt P28335); assay: 5HT subtype antagonism assay (Eurofins Cerep): 5HT2C; type: cell-based
Chain of 5HT2C (h) (P28335 33-458): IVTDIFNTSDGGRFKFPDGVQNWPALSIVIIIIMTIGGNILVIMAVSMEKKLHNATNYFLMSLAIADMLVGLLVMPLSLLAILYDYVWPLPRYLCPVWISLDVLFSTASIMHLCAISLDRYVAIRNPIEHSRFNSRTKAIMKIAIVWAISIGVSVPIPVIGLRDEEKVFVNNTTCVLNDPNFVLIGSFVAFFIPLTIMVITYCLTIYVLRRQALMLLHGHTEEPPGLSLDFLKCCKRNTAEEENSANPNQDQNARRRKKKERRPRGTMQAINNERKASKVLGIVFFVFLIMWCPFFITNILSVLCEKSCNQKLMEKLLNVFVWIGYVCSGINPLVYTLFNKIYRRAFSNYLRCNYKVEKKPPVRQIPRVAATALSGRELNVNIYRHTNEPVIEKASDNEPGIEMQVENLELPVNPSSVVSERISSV

in vitro [2] = conditions: Chinese hamster
5HT4E (h) = molecular target: T1, 5HT4E (h) (Homo sapiens, UniProt Q13639); assay: 5HT subtype antagonism assay (Eurofins Cerep): 5HT4E; type: cell-based; conditions: concentration not given
T1 construct: host or cells: CHO cells
T1 sequence (Q13639 1-378 isoform Q13639-5): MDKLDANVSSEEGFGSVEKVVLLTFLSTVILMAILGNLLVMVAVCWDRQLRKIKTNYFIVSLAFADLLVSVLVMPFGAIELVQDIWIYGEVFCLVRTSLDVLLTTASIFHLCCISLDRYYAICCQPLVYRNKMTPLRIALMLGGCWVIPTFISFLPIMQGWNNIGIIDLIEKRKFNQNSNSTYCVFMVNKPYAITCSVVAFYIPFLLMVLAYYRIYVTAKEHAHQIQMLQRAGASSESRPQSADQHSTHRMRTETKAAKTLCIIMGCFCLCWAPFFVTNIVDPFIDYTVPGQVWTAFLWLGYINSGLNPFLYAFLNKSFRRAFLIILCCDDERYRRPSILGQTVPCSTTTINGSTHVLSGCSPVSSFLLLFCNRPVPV
Experimental: The derivatives were evaluated at a concentration of 1 μM for their antagonist activity on the 5HT2A receptor (Tables 1–3)[33],[34]. Human 5HT2A stably transfected HEK293 cells (a type of cell derived from kidney embryos)[20] were seeded in a 96-well plate (Costar; 3603) at a density of 9 × 10^4 in 100 μL of minimum essential medium (Welgene; LM007-86) containing 10% dialyzed fetal bovine serum (Gibco; 30067–334) and 1% penicillin/streptomycin (Gibco; 15140-122) and kept in a 37 °C incubator for 24 h. The cells were stained with 100 μL of cytosolic calcium dye using the FLIPR calcium 6 assay solution (Molecular devices, #R8190) supplemented with 2.5 mM probenecid (Sigma; P8761) and incubated for 1 h at 37 °C. After 1 h, the designated amount of the compound was treated in each well and incubated for another 1 h at 37 °C. Then, the cells were loaded in a Flexstation 3 microplate reader (Molecular Devices; FlexStaion) and 50 μL of 5 μM 5HT (serotonin hydrochloride, Sigma; H9523) was injected from a source plate (Nunc 96-well polystyrene conical bottom MicroWell Plate, Thermo; 249662) and the fluorescence intensity (Ex/Em-485nm/ 525 nm) was measured. […]
Antagonism assay Source Stimulus Incubation Measured Detection Method […]

Cc1nc2n(c(=O)c1CCN1CCC(=C3c4ccc(Cl)cc4CCc4cccnc43)CC1)CCCC2O (stereo not shown) [Compound 11c]
remaining at 4 h (in vitro [1]): > 99.9%
IL-1β immunohistochemical staining (IL1b area), Average (IL-1β; 11c 5 mpk): 4.503
IL-1β immunohistochemical staining (IL1b area), individual mouse (IL-1β; 11c 5 mpk): 6.500 and 6.265 and 2.688 and 2.559
IL-1β immunohistochemical staining (IL1b area), Average (IL-1β; 11c 10mpk): 3.142
IL-1β immunohistochemical staining (IL1b area), individual mouse (IL-1β; 11c 10mpk): 2.228 and 4.531 and 2.370 and 3.440
IL-1β expression (immunohistochemical staining) (IL-1β; CDAHFD-fed 11c vs CDAHFD-fed vehicle group): significant decrease
Selectivity 2 C: % inhibition (5HT2C (h); concentration not given): 103%
IC50 (5HT2C (h); read-out: Selectivity 2 C: IC50): 170 nM
IC50 (in vitro [2]): > 100000 nM
Selectivity 4E: % inhibition (5HT4E (h)): -3%

From PMC10799935, “Discovery of a peripheral 5HT2A antagonist as a clinical candidate for metabolic dysfunction-associated steatohepatitis” (Nature Communications, 2024)
